What was measured:
[1] = biological target: T1, AmpC β-lactamase (Escherichia coli, UniProt P00811); conditions: binding to AmpC; ITC
T1 construct: made in house; host or cells: E. coli BL21 (DE3)
Procedure: (§1) Isothermal titration calorimetry was performed on a high-precision VP-ITC titration calorimeter (Microcal Inc., Northampton, Mass.). β-Lactamase solutions were titrated with inhibitors in 50 mM sodium phosphate, 2% DMSO, pH 7.0, with β-lactamase concentrations ranging from 15 to 25 μM and inhibitor concentrations ranging from 300 to 1000 μM. The heat evolved from each injection was obtained by integrating the calorimetric signal. Heat of binding was obtained as the difference between the heat of reaction and the heat of inhibitor dilution. Data were analyzed using Origin 7.0 (OriginLab Corporation, Northampton, Mass.).
Isothermal titration calorimetry was undertaken to determine the thermodynamic characteristics of binding to AmpC β-lactamase.

[2] = biological target: T1, AmpC β-lactamase; test: AmpC β-lactamase competitive inhibition assay (nitrocefin hydrolysis); type: biochemical
Procedure: The gene for AmpC β-lactamase (accession number P00811) was obtained from Escherichia coli K12 strain W3110 (American Type Culture Collection, Rockville Md.). E. coli was grown and plasmid (F-lacIq lacPL8 ampC::lambdacI+) was isolated via Qiagen (Valencia, Calif.) mini prep. The gene for AmpC was amplified in two pieces via polymerase chain reaction, ligated and purified by agarose gel electrophoresis. The ligated gene was inserted into a pET200 vector via a TOPO reaction (Invitrogen, Carlsbad, Calif.).
BL21 (DE3) (Invitrogen) cells were transformed by heat-shock with the prepared plasmid. These cells were grown to an OD600 of 0.8 at 37° C. Isopropylthiogalactoside (IPTG) was added to 1 mM, incubation temperature decreased to 25° C. and the cells were grown for an additional 18 hours. After 18 hours, the E. coli was pelleted by centrifugation, and discarded. The growth media was concentrated and dialyzed versus 100 mM Tris, pH 7.0. This solution was run through an equilibrated Q-resin column, and washed with excess 100 mM Tris, pH 7.0.
The competitive inhibition of β-lactamase was determined spectrophotometrically using a Varian (Walnut Creek, Calif.) Cary 100 UV-Visible spectrophotometer. β-lactamase activity was followed by measuring the hydrolysis of nitrocefin, [3-(2,4-dinitrostyryl)-(6R, 7R)-7-(2-thienylacetamido)-ceph-3-em-4-carboxylic acid, E-isomer], (Calbiochem, San Diego, Calif.) at 486 nm. Inhibition assays were performed at 25° C. in 50 mM sodium phosphate, 5% DMSO, pH 7.0. […] Penicillin G (Sigma, St. Louis, Mo.) was also used as a substrate to determine KM and kcat.
Inhibitor was added to protein and incubated for ten minutes before the addition of substrate. Inhibition constants were determined by measuring the loss of P-lactamase activity with increasing inhibitor concentrations and fitting the data to standard equations for competitive inhibition.

[3] = biological target: β-lactamase R244S (Escherichia coli, UniProt P62593, R241S); test: Isothermal titration calorimetry, binding enthalpy, R244S mutant
Procedure: The binding of the compounds of the present invention to β-lactamase was also measured by isothermal titration calorimetry.
These experiments, in combination with the inhibition assays, indicate that the compounds identified in this disclosure bind to the wild type as well as drug resistant beta lactamases with favorable binding enthalpies. This is a very important characteristic from the point of view of further optimization since it facilitates the achievement of extremely high affinities and low susceptibilities to drug resistant mutations and naturally occurring polymorphisms.
as §1

[4] = biological target: β-lactamase mutant M69I (Escherichia coli, UniProt P62593, M67I); type: biochemical; conditions: number higher than 1 reflects a loss of potency against mutant
[5] = biological target: β-lactamase mutant R244S (Escherichia coli, UniProt P62593, R241S); type: biochemical; conditions: number higher than 1 reflects a loss of potency against mutant
[6] = biological target: β-lactamase mutant E104K (Escherichia coli, UniProt P62593, E102K); type: biochemical; conditions: number higher than 1 reflects a loss of potency against mutant

T1 sequence (P00811 20-377): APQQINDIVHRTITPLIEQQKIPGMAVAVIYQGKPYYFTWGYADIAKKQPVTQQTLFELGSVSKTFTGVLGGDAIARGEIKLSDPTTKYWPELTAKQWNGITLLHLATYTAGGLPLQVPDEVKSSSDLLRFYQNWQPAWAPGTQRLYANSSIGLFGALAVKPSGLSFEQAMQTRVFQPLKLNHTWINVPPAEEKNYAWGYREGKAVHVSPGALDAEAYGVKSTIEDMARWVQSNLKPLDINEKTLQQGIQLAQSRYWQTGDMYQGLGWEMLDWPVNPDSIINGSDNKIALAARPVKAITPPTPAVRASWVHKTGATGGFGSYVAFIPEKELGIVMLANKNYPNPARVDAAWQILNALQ

With `O=C(OCc1ccccc1)c1cc(B(O)O)cc([N+](=O)[O-])c1` [Compound F1201] the ΔG [1] was -6566 cal/mol, the ΔH [1] was -5084 cal/mol and the “−TΔS” value [1] was -1482 cal/mol. The Ki [2] was 4.45 µM, the “ΔH R244S” value [3] was -6500 cal/mol and the “Loss of potency: ratio of the inhibitory constant between mutant and wild type (Potencywt/Potencymutant), M69I” value [4] was 0.52. The “Loss of potency: ratio of the inhibitory constant between mutant and wild type (Potencywt/Potencymutant), R244S” value [5] was 0.86 and the “Loss of potency: ratio of the inhibitory constant between mutant and wild type (Potencywt/Potencymutant), E104K” value [6] was 0.48.
